Assay results reported in patent EP3345917A1, “ANTIPROTOZOAL COMPOUNDS” (Bacoba AG, priority 2017, dated 2018).
Non-standard residues stand in square brackets, D forms with d. Residues, ends and D or L forms follow the SMILES beside them. *: point of attachment. NH((S)CH(Me)CH2NMe2) = C[C@@H](CN(C)C)N*; NH(2-morpholinoethyl) = C(CN1CCOCC1)N*; dGly(nOct) = CCCCCCCC[C@@H](N)C(=O)O; Gly(octyl) = CCCCCCCC[C@H](N)C(=O)O; X11 = C[C@@H]1CN(CCN*)C[C@H](C)O1; X4 = O=C(C1CCc2ccccc2C1)*; Hexanoyl = CCCCCC(=O)*; X1 = CN(C)C1CCC(N*)CC1; Aib = CC(C)(N)C(=O)O; X7 = CN(C)CC(C)(C)N*; Ms = CS(=O)(=O)*; βAla = NCCC(=O)O

What was measured:
[1] = system: Trypanosoma brucei rhodesiense (STIB 900 strain); assay: Alamar Blue assay against Trypanosoma brucei rhodesiense grown in axenic medium; format: cell-based; conditions: In vitro inhibition, read-out: T.b.rhod.
Procedure, shortened: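 T. b. rhodesiense STIB 900 cultured in axenic medium and exposed to samples in an Alamar Blue viability assay, run in triplicate. IC50 calculated from the readout; melarsoprol served as reference drug.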

[2] = system: Trypanosoma cruzi trypomastigote forms (Tulahuen strain); assay: Intracellular Trypanosoma cruzi assay in L6-cells, beta-galactosidase/CPRG readout; format: cell-based; conditions: In vitro inhibition, read-out: T.cruzi.
Procedure, shortened: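 L6 rat myoblasts infected with Tulahuen C2C4 LacZ T. cruzi; after incubation, CPRG/Nonidet substrate added and colour developed 2–6 h. Absorbance at 540 nm; IC50 calculated; triplicate tests.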

Plasmodium falciparum = assay: 3H-hypoxanthine incorporation assay against Plasmodium falciparum; format: cell-based; conditions: In vitro inhibition, read-out: P.falc NF5
Experimental: (§1) Tests were done in triplicate.
IC50 values were calculated by linear interpolation.

[3] = system: Axenically grown Leishmania donovani amastigotes (strain MHOM/ET/67/L82); assay: Axenic Leishmania donovani amastigote resazurin assay; format: cell-based; conditions: In vitro inhibition, read-out: L.don. ax
Procedure, shortened: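 Strain MHOM/ET/67/L82 amastigotes grown axenically and tested in triplicate by resazurin assay. Plates developed 2-4 hours, fluorescence read at 536 nm excitation/588 nm emission and expressed as percentage of negative control.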

[4] = Cytotoxicity assay on L6-cells (Alamar Blue); conditions: rat, Cytotox L6, Cytotoxicity against rat myoblast cells (L6)
[5] = system: intracellular Leishmania donovani (L.don. InMac); assay: Intracellular Leishmania donovani assay (L.don. InMac); format: cell-based; conditions: In vitro inhibition
Excerpt: as §1

Structure (SMILES): CCCCCCCC[C@H](NC(=O)[C@@H]1CCCN1C(=O)CCCCC)C(=O)N[C@@H](CC(C)C)C(=O)NC(C)(C)C(=O)N[C@@H](CC(C)C)C(=O)N[C@@H](CC(C)C)C(=O)NC(C)(C)C(=O)NC(C)(C)C(=O)NCCC(=O)NCCN1CCOCC1 [Compound 5646, (2S)-2-{[(2S)-1-hexanoylpyrrolidin-2-yl]formamido}-N-[(1S)-3-methyl-1-[(1-methyl-1-{[(1S)-3-methyl-1-{[(1S)-3-methyl-1-{[1-methyl-1-({1-methyl-1-[(2-{[2-(morpholin-4-yl)ethyl]carbamoyl}ethyl)carbamoyl]ethyl}carbamoyl)ethyl]carbamoyl}butyl]carbamoyl}butyl]carbamoyl}ethyl)carbamoyl]butyl]decanamide] (Hexanoyl-P[Gly(octyl)]L[Aib]LL[Aib][Aib][βAla]-{NH(2-morpholinoethyl)})
- IC50 [1]: 212 nM
- IC50 [2]: 392 nM
- IC50 (Plasmodium falciparum): 22.4 nM
- IC50 [3]: 1.6 nM
- IC50 at 70 h [4]: 1460 nM
- IC50 [5]: 99.5 nM

Structure (SMILES): CCCCCCCC[C@H](NC(=O)C1CCc2ccccc2C1)C(=O)N[C@@H](CC(C)C)C(=O)NC(C)(C)C(=O)N[C@@H](CC(C)C)C(=O)N[C@@H](CC(C)C)C(=O)NC(C)(C)C(=O)NC(C)(C)C(=O)NCCC(=O)N[C@@H](C)CN(C)C (stereo partly drawn) [Compound 5944, (2S)-N-[(1S)-1-[(1-{[(1S)-1-{[(1S)-1-{[1-({1-[(2-{[(2S)-1-(dimethylamino)propan-2-yl]carbamoyl}ethyl)carbamoyl]-1-methylethyl}carbamoyl)-1-methylethyl]carbamoyl}-3-methylbutyl]carbamoyl}-3-methylbutyl]carbamoyl}-1-methylethyl)carbamoyl]-3-methylbutyl]-2-[(1,2,3,4-tetrahydronaphthalen-2-yl)formamido]decanamide] (X4-[Gly(octyl)]L[Aib]LL[Aib][Aib][βAla]-{NH((S)CH(Me)CH2NMe2)})
- IC50 [1]: 0.1 nM
- IC50 [2]: 5 nM
- IC50 (Plasmodium falciparum): 42500 nM
- IC50 [3]: 0.6 nM
- IC50 at 70 h [4]: 137 nM
- IC50 [5]: < 36.5 nM

Structure (SMILES): CCCCCCCC[C@@H](NC(=O)[C@H]1CCCN1C(=O)CCCCC)C(=O)N[C@H](CC(C)C)C(=O)NC(C)(C)C(=O)N[C@H](CC(C)C)C(=O)N[C@H](CC(C)C)C(=O)NC(C)(C)C(=O)NC(C)(C)C(=O)NCCC(=O)N[C@@H](C)CN(C)C [Compound 5849, (2R)-N-[(1R)-1-[(1-{[(1R)-1-{[(1R)-1-{[1-({1-[(2-{[(2S)-1-(dimethylamino)propan-2-yl]carbamoyl}ethyl)carbamoyl]-1-methylethyl}carbamoyl)-1-methylethyl]carbamoyl}-3-methylbutyl]carbamoyl}-3-methylbutyl]carbamoyl}-1-methylethyl)carbamoyl]-3-methylbutyl]-2-{[(2R)-1-hexanoylpyrrolidin-2-yl]formamido}decanamide] (Hexanoyl-[dP][dGly(nOct)][dL][Aib][dL][dL][Aib][Aib][βAla]-{NH((S)CH(Me)CH2NMe2)})
- IC50 [1]: 55.6 nM
- IC50 [2]: 257 nM
- IC50 (Plasmodium falciparum): 7.5 nM
- IC50 [3]: 3.5 nM
- IC50 at 70 h [4]: 1070 nM
- IC50 [5]: 67.1 nM

Structure (SMILES): CCCCCCCC[C@H](NC(=O)[C@@H]1CCCN1C(=O)CCCCC)C(=O)N[C@@H](CC(C)C)C(=O)NC(C)(C)C(=O)N[C@@H](CC(C)C)C(=O)N[C@@H](CC(C)C)C(=O)NC(C)(C)C(=O)NC(C)(C)C(=O)NCCC(=O)NC(C)(C)CN(C)C [Compound 5889, (2S)-N-[(1S)-1-[(1-{[(1S)-1-{[(1S)-1-{[1-({1-[(2-{[1-(dimethylamino)-2-methylpropan-2-yl]carbamoyl}ethyl)carbamoyl]-1-methylethyl}carbamoyl)-1-methylethyl]carbamoyl}-3-methylbutyl]carbamoyl}-3-methylbutyl]carbamoyl}-1-methylethyl)carbamoyl]-3-methylbutyl]-2-{[(2S)-1-hexanoylpyrrolidin-2-yl]formamido}decanamide] (Hexanoyl-P[Gly(octyl)]L[Aib]LL[Aib][Aib][βAla]-X7)
- IC50 [1]: 15.9 nM
- IC50 [2]: 248 nM
- IC50 (Plasmodium falciparum): 199 nM
- IC50 [3]: 11100 nM
- IC50 at 70 h [4]: 959 nM
- IC50 [5]: 86.5 nM

Structure (SMILES): CCCCCCCC[C@@H](NC(=O)[C@H]1CCCN1C(=O)CCCCC)C(=O)N[C@H](CC(C)C)C(=O)NC(C)(C)C(=O)N[C@@H](CC(C)C)C(=O)N[C@@H](CC(C)C)C(=O)NC(C)(C)C(=O)NC(C)(C)C(=O)NCCC(=O)N[C@@H](C)CN(C)C [Compound 5851, (2R)-N-[(1R)-1-[(1-{[(1S)-1-{[(1S)-1-{[1-({1-[(2-{[(2S)-1-(dimethylamino)propan-2-yl]carbamoyl}ethyl)carbamoyl]-1-methylethyl}carbamoyl)-1-methylethyl]carbamoyl}-3-methylbutyl]carbamoyl}-3-methylbutyl]carbamoyl}-1-methylethyl)carbamoyl]-3-methylbutyl]-2-{[(2R)-1-hexanoylpyrrolidin-2-yl]formamido}decanamide] (Hexanoyl-[dP][dGly(nOct)][dL][Aib]LL[Aib][Aib][βAla]-{NH((S)CH(Me)CH2NMe2)})
- IC50 [1]: 165 nM
- IC50 [2]: 1130 nM
- IC50 (Plasmodium falciparum): 51.7 nM
- IC50 [3]: 144 nM
- IC50 at 70 h [4]: 1210 nM
- IC50 [5]: 241 nM

Structure (SMILES): CCCCCCCC[C@H](NC(=O)[C@@H]1CCCN1C(=O)CCCCC)C(=O)N[C@@H](CC(C)C)C(=O)NC(C)(C)C(=O)N[C@@H](CC(C)C)C(=O)N[C@@H](CC(C)C)C(=O)NC(C)(C)C(=O)NC(C)(C)C(=O)NCCC(=O)NC1CCC(N(C)C)CC1 (stereo partly drawn) [Compound 5881, (2S)-N-[(1S)-1-[(1-{[(1S)-1-{[(1S)-1-{[1-({1-[(2-{[4-(dimethylamino)cyclohexyl]carbamoyl}ethyl)carbamoyl]-1-methylethyl}carbamoyl)-1-methylethyl]carbamoyl}-3-methylbutyl]carbamoyl}-3-methylbutyl]carbamoyl}-1-methylethyl)carbamoyl]-3-methylbutyl]-2-{[(2S)-1-hexanoylpyrrolidin-2-yl]formamido}decanamide] (Hexanoyl-P[Gly(octyl)]L[Aib]LL[Aib][Aib][βAla]-X1)
- IC50 [1]: 44200 nM
- IC50 [2]: 44 nM
- IC50 (Plasmodium falciparum): 0.2 nM
- IC50 [3]: 0.7 nM
- IC50 at 70 h [4]: 592 nM
- IC50 [5]: 42500 nM

Structure (SMILES): CCCCCCCC[C@H](NC(=O)[C@@H]1CCCN1C(C)=O)C(=O)N[C@@H](CC(C)C)C(=O)NC(C)(C)C(=O)N[C@@H](CC(C)C)C(=O)N[C@@H](CC(C)C)C(=O)NC(C)(C)C(=O)NC(C)(C)C(=O)NCCC(=O)N[C@@H](C)CN(C)C [Compound 5638, (2S)-2-{[(2S)-1-acetylpyrrolidin-2-yl]formamido}-N-[(1S)-1-[(1-{[(1S)-1-{[(1S)-1-{[1-({1-[(2-{[(2S)-1-(dimethylamino)propan-2-yl]carbamoyl}ethyl)carbamoyl]-1-methylethyl}carbamoyl)-1-methylethyl]carbamoyl}-3-methylbutyl]carbamoyl}-3-methylbutyl]carbamoyl}-1-methylethyl)carbamoyl]-3-methylbutyl]decanamide] (Ac-P[Gly(octyl)]L[Aib]LL[Aib][Aib][βAla]-{NH((S)CH(Me)CH2NMe2)})
- IC50 [1]: 0.4 nM
- IC50 [2]: 98.5 nM
- IC50 (Plasmodium falciparum): 0.6 nM
- IC50 [3]: 7 nM
- IC50 at 70 h [4]: 634 nM
- IC50 [5]: 224 nM

Structure (SMILES): CCCCCCCC[C@H](NC(=O)[C@@H]1CCCN1C(=O)CCCCC)C(=O)N[C@@H](CC(C)C)C(=O)NC(C)(C)C(=O)N[C@@H](CC(C)C)C(=O)N[C@@H](CC(C)C)C(=O)NC(C)(C)C(=O)NC(C)(C)C(=O)NCCC(=O)NCCN1C[C@@H](C)O[C@@H](C)C1 [Compound 5648, (2S)-N-[(1S)-1-[(1-{[(1S)-1-{[(1S)-1-({1-[(1-{[2-({2-[(2R,6S)-2,6-dimethylmorpholin-4-yl]ethyl}carbamoyl)ethyl]carbamoyl}-1-methylethyl)carbamoyl]-1-methylethyl}carbamoyl)-3-methylbutyl]carbamoyl}-3-methylbutyl]carbamoyl}-1-methylethyl)carbamoyl]-3-methylbutyl]-2-{[(2S)-1-hexanoylpyrrolidin-2-yl]formamido}decanamide] (Hexanoyl-P[Gly(octyl)]L[Aib]LL[Aib][Aib][βAla]-X11)
- IC50 [1]: 54.7 nM
- IC50 [2]: 229 nM
- IC50 (Plasmodium falciparum): 26.9 nM
- IC50 [3]: 0.5 nM
- IC50 at 70 h [4]: 2280 nM
- IC50 [5]: 186 nM

Structure (SMILES): CCCCCCCC[C@H](NC(=O)[C@@H]1CCCN1S(C)(=O)=O)C(=O)N[C@@H](CC(C)C)C(=O)NC(C)(C)C(=O)N[C@@H](CC(C)C)C(=O)N[C@@H](CC(C)C)C(=O)NC(C)(C)C(=O)NC(C)(C)C(=O)NCCC(=O)N[C@@H](C)CN(C)C [Compound 5652, (2S)-N-[(1S)-1-[(1-{[(1S)-1-{[(1S)-1-{[1-({1-[(2-{[(2S)-1-(dimethylamino)propan-2-yl]carbamoyl}ethyl)carbamoyl]-1-methylethyl}carbamoyl)-1-methylethyl]carbamoyl}-3-methylbutyl]carbamoyl}-3-methylbutyl]carbamoyl}-1-methylethyl)carbamoyl]-3-methylbutyl]-2-{[(2S)-1-methanesulfonylpyrrolidin-2-yl]formamido}decanamide] (Ms-P[Gly(octyl)]L[Aib]LL[Aib][Aib][βAla]-{NH((S)CH(Me)CH2NMe2)})
- IC50 [1]: 4 nM
- IC50 [2]: 436 nM
- IC50 (Plasmodium falciparum): 4.6 nM
- IC50 [3]: 8.1 nM
- IC50 at 70 h [4]: 1410 nM
- IC50 [5]: 166 nM
